Source: US10266497B2 (ABIDE THERAPEUTICS, INC., priority 2017, dated 2019)

Legend:
MAGL [1] = target: T1, MAGL (Homo sapiens, UniProt Q99685); experiment: In vitro competitive activity-based protein profiling, MAGL, human; conditions: read-out: MAGL % inh. 1 μM (human)
T1 sequence (Q99685 1-303): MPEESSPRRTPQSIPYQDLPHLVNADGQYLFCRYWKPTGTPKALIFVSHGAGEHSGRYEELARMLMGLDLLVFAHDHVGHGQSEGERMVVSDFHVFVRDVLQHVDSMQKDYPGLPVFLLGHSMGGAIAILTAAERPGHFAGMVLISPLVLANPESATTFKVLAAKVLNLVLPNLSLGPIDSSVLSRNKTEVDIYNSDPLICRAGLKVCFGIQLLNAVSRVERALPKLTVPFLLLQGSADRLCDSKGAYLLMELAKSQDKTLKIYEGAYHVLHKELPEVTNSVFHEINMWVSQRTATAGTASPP

MAGL [2] = target: T2, MAGL (Mus musculus, UniProt O35678); experiment: In vitro competitive activity-based protein profiling, MAGL, mouse; conditions: read-out: MAGL % inh. 1 μM (mouse)
T2 sequence (O35678 1-303): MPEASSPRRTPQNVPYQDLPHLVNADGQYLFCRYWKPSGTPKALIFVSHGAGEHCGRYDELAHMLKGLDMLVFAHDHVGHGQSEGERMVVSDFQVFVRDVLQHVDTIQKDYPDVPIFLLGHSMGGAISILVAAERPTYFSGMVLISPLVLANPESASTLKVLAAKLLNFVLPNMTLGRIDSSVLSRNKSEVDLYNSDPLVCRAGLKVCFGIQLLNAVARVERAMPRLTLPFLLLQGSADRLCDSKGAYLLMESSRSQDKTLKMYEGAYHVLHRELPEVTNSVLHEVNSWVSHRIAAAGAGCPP
Experimental: Biological Evaluation In Vitro Competitive Activity-Based Protein Profiling.
Proteomes (mouse brain membrane fraction for mouse assays; human prefrontal cortex membrane fractions for human assays) (50 mL, 1.0 mg/mL total protein concentration) were preincubated with varying concentrations of inhibitors at 37° C. After 30 min, FP-Rh (1.0 mL, 50 mM in DMSO) was added and the mixture was incubated for another 30 min at 37° C. Reactions were quenched with SDS loading buffer (15 μL—4λ) and run on SDS-PAGE.

Row | SMILES | inhibition at 1 µM (MAGL [1]) | inhibition at 1 µM (MAGL [2])
1 | O=C(O)c1ccn(C(=O)N2CCN(Cc3cccc(Oc4ncccc4F)c3)CC2)n1 [Example 264, 1-(4-(3-((3-fluoropyridin-2-yl)oxy)benzyl)piper-azine-1-carbonyl)-1H-pyrazole-3-carboxylic acid] | > 75% | > 75%
2 | O=C(O)c1ccn(C(=O)N2CCN(Cc3cccc(Oc4ccc(F)cn4)c3)CC2)n1 [Example 266, 1-(4-(3-((5-fluoropyridin-2-yl)oxy)benzyl)piper-azine-1-carbonyl)-1H-pyrazole-3-carboxylic acid] | > 75% | > 75%
3 | O=C(O)c1ccn(C(=O)N2C[C@H]3C[C@H](Oc4ccccc4C4CCOCC4)C[C@H]3C2)n1 [Example 268, 1-(trans-5-(2-(tetrahydro-2H-pyran-4-yl)phenoxy)octa-hydrocyclopenta[c]pyrrole-2-carbonyl)-1H-pyrazole-3-carboxylic acid] | > 75% | > 75%
4 | O=C(O)c1nn(C(=O)N2CCN(Cc3cccc(-c4cncnc4)c3)CC2)cc1Cl [Example 270, 4-chloro-1-(4-(3-(pyrimidin-5-yl)benzyl)piperazine-1-carbonyl)-1H-pyrazole-3-carboxylic acid] | > 75% | > 75%
5 | C[C@H]1CN(Cc2cc(Cl)cc(C(F)(F)F)c2)CCN1C(=O)n1ccc(C(N)=O)n1 [Example 271, (S)-1-(4-(3-chloro-5-(trifluoromethyl)benzyl)-2-methylpiperazine-1-carbonyl)-1H-pyrazole-3-carboxamide] | > 75% | > 75%
6 | C[C@@H]1CN(Cc2cc(Cl)cc(C(F)(F)F)c2)CCN1C(=O)n1ccc(C(N)=O)n1 [Example 272, (R)-1-(4-(3-chloro-5-(trifluoromethyl)benzyl)-2-methylpiperazine-1-carbonyl)-1H-pyrazole-3-carboxamide] | > 75% | > 75%
7 | O=C(O)c1ccn(C(=O)N2CCN(Cc3ccc(Cl)c(-c4nccs4)c3)CC2)n1 [Example 274, 1-(4-(4-chloro-3-(thiazol-2-yl)benzyl)piperazine-1-carbonyl)-1H-pyrazole-3-carboxylic acid] | > 75% | > 75%
8 | O=C(O)c1ccn(C(=O)N2CCC(OCc3cc(Cl)cc(C(F)(F)F)c3)CC2)n1 [Example 275, 1-(4-((3-chloro-5-(trifluoromethyl)benzyl)oxy)piper-idine-1-carbonyl)-1H-pyrazole-3-carboxylic acid] | > 75% | > 75%
9 | O=C(O)c1ccn(C(=O)N2CCC(OCc3ccc(Cl)c(C(F)(F)F)c3)CC2)n1 [Example 276, 1-(4-((4-chloro-3-(trifluoromethyl)benzyl)oxy)piper-idine-1-carbonyl)-1H-pyrazole-3-carboxylic acid] | > 75% | > 75%
10 | O=C(O)c1ccn(C(=O)N2CCC(OCc3cc(Cl)ccc3C(F)(F)F)CC2)n1 [Example 277, 1-(4-((5-chloro-2-(trifluoromethyl)benzyl)oxy)piper-idine-1-carbonyl)-1H-pyrazole-3-carboxylic acid] | > 75% | > 75%
11 | O=C(O)c1ccn(C(=O)N2C[C@H]3C[C@H](OCc4cccc(-c5ccccc5)c4)C[C@H]3C2)n1 [Example 278, 1-(trans-5-([1,1′-biphenyl]-3-ylmethoxy)octa-hydrocyclopenta[c]pyrrole-2-carbonyl)-1H-pyrazole-3-carboxylic acid] | > 75% | > 75%
12 | O=C(O)c1ccn(C(=O)N2C[C@H]3C[C@@H](OCc4cccc(-c5ccccc5)c4)C[C@H]3C2)n1 [Example 279, 1-(cis-5-([1,1′-biphenyl]-3-ylmethoxy)octa-hydrocyclopenta[c]pyrrole-2-carbonyl)-1H-pyrazole-3-carboxylic acid] | > 75% | > 75%
13 | Cc1cn(C(=O)N2C[C@H]3C[C@H](Oc4cccc(-c5ccccc5)c4)C[C@H]3C2)nc1C(=O)O [Example 280, 1-(trans-5-([1,1′-biphenyl]-3-yloxy)octahydro-cyclopenta[c]pyrrole-2-carbonyl)-4-methyl-1H-pyrazole-3-carboxylic acid] | > 75% | > 75%
14 | Cc1cn(C(=O)N2C[C@H]3C[C@H](Oc4ccccc4-c4ccccc4)C[C@H]3C2)nc1C(=O)O [Example 281, 1-(trans-5-([1,1′-biphenyl]-2-yloxy)octahydro-cyclopenta[c]pyrrole-2-carbonyl)-4-methyl-1H-pyrazole-3-carboxylic acid] | > 75% | > 75%
15 | COc1ccc(Cl)cc1CN1CCC2(CCN(C(=O)n3ccc(C(=O)O)n3)CC2)C1 [Example 282, 1-(2-(5-chloro-2-methoxybenzyl)-2,8-diazaspiro[4.5]decane-8-carbonyl)-1H-pyrazole-3-carboxylic acid] | 50 to 75% | 0 to 25%
16 | COc1cc(-c2ccccc2)ccc1CN1CCN(C(=O)n2ccc(C(=O)O)n2)[C@H](C)C1 [Example 283, (R)-1-(4-((3-methoxy-[1,1′-biphenyl]-4-yl)methyl)-2-methylpiperazine-1-carbonyl)-1H-pyrazole-3-carboxylic acid] | > 75% | > 75%
17 | NC(=O)c1ccn(C(=O)N2CCC3(CCN(Cc4cccc(C(F)(F)F)c4)C3)CC2)n1 [Example 284, 1-(2-(3-(trifluoromethyl)benzyl)-2,8-diazaspiro[4.5]decane-8-carbonyl)-1H-pyrazole-3-carboxamide] | > 75% | > 75%
18 | O=C(O)c1ccn(C(=O)N2CCC3(CCN(Cc4cccc(Cl)c4Cl)C3)CC2)n1 [Example 286, 1-(2-(2,3-dichlorobenzyl)-2,8-diazaspiro[4.5]decane-8-carbonyl)-1H-pyrazole-3-carboxylic acid] | > 75% | > 75%
19 | O=C(O)c1ccn(C(=O)N2CCC3(CCN(Cc4cccc(C(F)(F)F)c4)CC3)C2)n1 [Example 287, 1-(8-(3-(trifluoromethyl)benzyl)-2,8-diazaspiro[4.5]decane-2-carbonyl)-1H-pyrazole-3-carboxylic acid] | 25 to 50% | 0 to 25%
20 | Cc1c(CO[C@@H]2C[C@@H]3CN(C(=O)n4ccc(C(=O)O)n4)C[C@@H]3C2)cccc1C(F)(F)F [Example 289, 1-(cis-5-((2-methyl-3-(trifluoromethyl)benzyl)oxy)octa-hydrocyclopenta[c]pyrrole-2-carbonyl)-1H-pyrazole-3-carboxylic acid] | > 75% | > 75%
21 | Cc1cn(C(=O)N2C[C@H]3C[C@H](OCc4cccc(C(F)(F)F)c4)C[C@H]3C2)nc1C(=O)O [Example 290, 4-methyl-1-(trans-5-((3-(trifluoromethyl)benzyl)oxy)octa-hydrocyclopenta[c]pyrrole-2-carbonyl)-1H-pyrazole-3-carboxylic acid] | > 75% | > 75%
22 | C[C@@H]1CN(Cc2ccc(F)c(Oc3ccccc3)c2)CCN1C(=O)n1ccc(C(=O)O)n1 [Example 294, (R)-1-(4-(4-fluoro-3-phenoxybenzyl)-2-methylpiperazine-1-carbonyl)-1H-pyrazole-3-carboxylic acid] | > 75% | > 75%
